# In patent US11578056B2, “Solid forms comprising (S)-2-(2,6-dioxopiperidin-3-yl)-4-((2-fluoro-4-((3-morpholinoazetidin-1-yl)methyl)benzyl)amino)isoindoline-1,3-dione and salts thereof, and compositions comprising and methods of using the same” (Celgene Corporation, priority 2019, dated 2023):
# Columns and labels:
# Assay type in all cases: physicochemical
# [1] = Solid state stability of free base and salt forms under stress storage conditions;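 for Physical stability: Physical stability judged by XRPD check of crystalline form at end of study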
# Method: The solid samples were analyzed for both chemical and chiral stability.
# [2] = Estimated solubility of free base and salt forms in solvents (aliquot addition, visual)
# Method: The experiments were carried out by adding the test solvent in aliquots to weighed portions of solid. Whether dissolution had occurred was judged by visual inspection after addition of each solvent aliquot. Solubility numbers were calculated by dividing the total amount of solvent used to dissolve the sample by the weight of the sample. […] The solubility number is expressed as “greater than or equal to” if dissolution occurred on addition of the first solvent aliquot.
# [3] = Dynamic vapor sorption (DVS) hygroscopicity
# Method: Dynamic vapor sorption (DVS) was measured using DVS advantage (Surface Measurement Systems Ltd). The samples were tested under isotherm (25° C.) at a targeted RH of 0 to 95% full cycle in step mode. For an isotherm test, the chamber temperature is maintained by a water bath at constant 25.0±1.0° C. The relative humidity in the sample chamber is generated by combining different flows of wet and dry nitrogen with variable flow rates. The analysis was performed in 10% RH increments. Sampling rate is 1 sec save data rate is 20 sec. The dm/dt (%) value was set at 0.001 with a dm/dt window of 5 min., a minimum stability duration time of 10 min, and a maximum stage time of 180 min. The sample's equilibrium weight corresponding to each RH was recorded. A sorption isotherm is obtained by plotting equilibrium moisture content versus RH.
compound,measurement,setting,value
Tosylate,Chemical (%),[1]; 40° C.,99.18%
same,Chiral (%),[1]; 40° C.,98.52%
same,Physical stability,[1]; 40° C.,Stable
same,Chemical (%),[1]; 40° C./80% RH,98.84%
same,Chiral (%),[1]; 40° C./80% RH,98.48%
same,Physical stability,[1]; 40° C./80% RH,Stable
same,Chemical (%),[1]; 60° C.,99.01%
same,Chiral (%),[1]; 60° C.,98.46%
same,Physical stability,[1]; 60° C.,Stable
same,Chemical (%),[1]; 60° C./75% RH,96.76%
same,Chiral (%),[1]; 60° C./75% RH,98.10%
same,Physical stability,[1]; 60° C./75% RH,Stable
same,Chemical (%),[1]; 70° C.,98.58%
same,Chiral (%),[1]; 70° C.,98.43%
same,Physical stability,[1]; 70° C.,Stable
same,Chemical (%),[1]; 70° C./80% RH,95.73%
same,Chiral (%),[1]; 70° C./80% RH,97.64%
same,Physical stability,[1]; 70° C./80% RH,Stable
same,Chemical (%),[1]; Ambient,99.19%
same,Chiral (%),[1]; Ambient,98.49%
same,Solubility,[2]; 2-methyl tetrahydrofuran,<1000 µg/mL
same,Solubility,[2]; 2-propanol,<1000 µg/mL
same,Solubility,[2]; 95:5 2-PrOH/water,<1000 µg/mL
same,Solubility,[2]; 95:5 ACN/water,17000 µg/mL
same,Solubility,[2]; 95:5 THF/water,16000 µg/mL
same,Solubility,[2]; 95:5 acetone/water,3000 µg/mL
same,Solubility,[2]; N-methyl pyrrolidone,17000 µg/mL
same,Solubility,[2]; acetone,<1000 µg/mL
same,Solubility,[2]; acetonitrile,1000 µg/mL
same,Solubility,[2]; anisole,<1000 µg/mL
same,Solubility,[2]; dichloromethane,1000 µg/mL
same,Solubility,[2]; dimethylacetamide,30000 µg/mL
same,Solubility,[2]; dimethylsulfoxide,34000 µg/mL
same,Solubility,[2]; ethanol,<1000 µg/mL
same,Solubility,[2]; ethyl acetate,<1000 µg/mL
same,Solubility,[2]; ethyl formate,<1000 µg/mL
same,Solubility,[2]; isopropyl acetate,<1000 µg/mL
same,Solubility,[2]; methanol,3000 µg/mL
same,Solubility,[2]; methyl ethyl ketone,<1000 µg/mL
same,Solubility,[2]; methyl tert-butyl ether,<1000 µg/mL
same,Solubility,[2]; nitromethane,4000 µg/mL
same,Solubility,[2]; tetrahydrofuran,<1000 µg/mL
same,Solubility,[2]; toluene,<1000 µg/mL
same,Solubility,[2]; water,2000 µg/mL
O=C1CC[C@H](N2C(=O)c3cccc(NCc4ccc(CN5CC(N6CCOCC6)C5)cc4F)c3C2=O)C(=O)N1 [Free base],Chemical (%),[1]; 40° C.,98.44%
same,Chiral (%),[1]; 40° C.,99.03%
same,Chemical (%),[1]; 40° C./80% RH,98.56%
same,Chiral (%),[1]; 40° C./80% RH,99.02%
same,Chemical (%),[1]; 60° C.,95.80%
same,Chiral (%),[1]; 60° C.,98.69%
same,Physical stability,[1]; 60° C.,Unstable
same,Chemical (%),[1]; 60° C./75% RH,98.10%
same,Chiral (%),[1]; 60° C./75% RH,83.04%
same,Physical stability,[1]; 60° C./75% RH,Unstable
same,Chemical (%),[1]; 70° C.,85.68%
same,Chiral (%),[1]; 70° C.,95.57%
same,Physical stability,[1]; 70° C.,Unstable
same,Chemical (%),[1]; 70° C./80% RH,93.29%
same,Chiral (%),[1]; 70° C./80% RH,52.01%
same,Physical stability,[1]; 70° C./80% RH,Unstable
same,Chemical (%),[1]; Ambient,98.95%
same,Chiral (%),[1]; Ambient,99.16%
O=C1CC[C@H](N2C(=O)c3cccc(NCc4ccc(CN5CC(N6CCOCC6)C5)cc4F)c3C2=O)C(=O)N1 [Compound 1 amorphous free base],hygroscopicity (DVS),[3]; below 75% RH,relatively high hygroscopicity
same,sorption/desorption reversibility (DVS),[3]; during two full cycles,almost reversible
same,moisture picked up (DVS),[3]; from dry up to 90% RH,~6.0 % wt
Cl.Cl.O=C1CC[C@H](N2C(=O)c3cccc(NCc4ccc(CN5CC(N6CCOCC6)C5)cc4F)c3C2=O)C(=O)N1,hygroscopicity (DVS),[3]; below 90% RH,highly hygroscopic
same,moisture gain (DVS),[3]; from 80% RH to 90% RH,~6.7%
same,water content released during desorption (DVS),[3]; from 90 to 80% RH,~7.0%
same,moisture picked up (DVS),[3]; from dry up to 80% RH,~8.0 % wt
